# Test results from patent US20260345527A1 (priority 2022, published 2026).
# Where two headings read alike, the source gives them in different places.
# What was measured:
# [1] = test system: insoluble TDP-43; assay: expression of insoluble TDP-43 in GFP-TDP-25 TDP-43 aggregation model of SH-SY5Y cells; settings: GFP-TDP-25 transfected cells; metformin (5 mM), colchicine (1000 nM) alone or in combination; FIG. 4 B and C
# Text: (§1) In FIG. 4, blue fluorescence indicates the nucleus with DAPI, and green fluorescence indicates TDP-25 with GFP.
# (§2) To construct an aggregation model of TDP-43 protein in the SH-SY5Y cells, which are human neuroblastoma cell lines, a GFP-TDP-25 plasmid was transfected into cells, and it may be confirmed that the transfected GFP-TPD-25 (GFP: green fluorescent protein) is present in the cytoplasm.
# [2] = test system: HSPB8; assay: protein expression of chaperone HSPB8 in SH-SY5Y cells
# [3] = test system: TFEB
# [4] = test system: TDP-43; assay: TDP-43 aggregation (TDP-43 aggregation kit) in H2O2-treated SH-SY5Y cells
# [5] = test system: TDP-43 protein; assay: inhibition of TDP-43 protein aggregation in SH-SY5Y cells (summary statements)
# [6] = test system: SQSTM1/p62
# [7] = test system: TDP-43; assay: TDP-43 aggregation in cytoplasm by immunofluorescence staining and fluorescence microscopy in H2O2-treated SH-SY5Y cells
# [8] = test system: MAP1LC3A
# [9] = test system: TDP-25; assay: intracellular localization of TDP-25 in SH-SY5Y cells transfected with GFP-TDP-25 (fluorescence microscopy)
# Text: as §1, §2
# [10] = test system: HSPB8 (Heat Shock Protein Family B (Small) Member 8); settings: sh-sy5y cells, 24 h
# [11] = test system: ALS; settings: approved ALS therapeutics, background; cited from earlier work
smiles,measurement,setting,value
CN(C)C(=N)N=C(N)N [metformin],effect on expression of insoluble TDP-43,[1],slightly reduced
same,change in HSPB8 protein expression,"[2]; metformin (5 mM) alone or colchicine (1000 nM) alone, FIG. 1 D",inadequate change
same,TFEB mRNA expression,"[3]; metformin alone, 0.1-5 mM, 24 hours, FIG. 5",no effect
same,effect on hydrogen peroxide-induced TDP-43 aggregation,"[4]; 24 h drug, then 1 mM H2O2 for 1 hour, metformin 0.1-5 mM, colchicine 1-1000 nM, alone or in combination, FIG. 2",did not have a significant effect
same,reduction/inhibition of TDP-43 aggregation (summary),"[5]; colchicine alone, metformin alone, or in combination",hardly reduced
same,SQSTM1/p62 mRNA expression,"[6]; metformin alone, 0.1-5 mM, 24 hours, FIG. 6",no effect
same,effect on TDP-43 aggregation in the cytoplasm,"[7]; hydrogen peroxide-treated cells, drugs alone or in combination, FIG. 3 A and B",did not inhibit
same,MAP1LC3A mRNA expression,"[8]; metformin alone, 0.1-5 mM, 24 hours, FIG. 7",no effect
same,effect on TDP-25 accumulation in the cytoplasm,"[9]; GFP-TDP-25 transfected cells, drugs alone or in combination, FIG. 4 A",did not affect
COc1cc2c(c(OC)c1OC)-c1ccc(OC)c(=O)cc1[C@@H](NC(C)=O)CC2 [colchicine],change in HSPB8 protein expression,[2],inadequate change
same,increase of TFEB mRNA expression,"[3]; sh-sy5y cells, 24 h",2-3 times
same,effect on hydrogen peroxide-induced TDP-43 aggregation,[4],slight effect
same,reduction/inhibition of TDP-43 aggregation (summary),[5],hardly reduced
same,increase of SQSTM1/p62 mRNA expression,"[6]; sh-sy5y cells, 24 h",2-3 times
same,effect on TDP-43 aggregation in the cytoplasm,[7],did not inhibit
same,increase of MAP1LC3A mRNA expression,"[8]; sh-sy5y cells, 24 h",2-3 times
same,increase in HSPB8 mRNA expression,[10],approximately 2 fold
same,effect on TDP-25 accumulation in the cytoplasm,[9],did not affect
CC1=NN(c2ccccc2)C(=O)C1 [Edaravone],effect on life expectancy or disease progression in ALS patients,[11],help extend life expectancy in patients by several months or delay the progression of the disease at an early stage
same,therapeutic effect in ALS,[11],only a symptom-relieving effect
"OO [hydrogen peroxide (H2O2), hydrogen peroxide]",induction of abnormal aggregation of TDP-43,"[4]; 1 mM hydrogen peroxide, 1 hour, FIG. 2",significantly induced abnormal aggregation of TDP-43
same,induction of TDP-43 aggregation in the cytoplasm,"[7]; 1 mM hydrogen peroxide, 1 hour, FIG. 3 A and B",significantly induced TDP-43 aggregation in the cytoplasm
Nc1nc2ccc(OC(F)(F)F)cc2s1 [Riluzole],effect on life expectancy or disease progression in ALS patients,[11],help extend life expectancy in patients by several months or delay the progression of the disease at an early stage
same,therapeutic effect in ALS,[11],only a symptom-relieving effect
